This passage reports inhibition results from PMC3445516 (PLoS ONE, 2012).

Test in all cases: Ambit kinase profiling, competition binding
For one assay, the target named is T1, MEK6 (Homo sapiens, UniProt P52564).
T1 construct: purchased Ambit Biosciences (KINOMEscan)
T1 sequence (P52564 1-334): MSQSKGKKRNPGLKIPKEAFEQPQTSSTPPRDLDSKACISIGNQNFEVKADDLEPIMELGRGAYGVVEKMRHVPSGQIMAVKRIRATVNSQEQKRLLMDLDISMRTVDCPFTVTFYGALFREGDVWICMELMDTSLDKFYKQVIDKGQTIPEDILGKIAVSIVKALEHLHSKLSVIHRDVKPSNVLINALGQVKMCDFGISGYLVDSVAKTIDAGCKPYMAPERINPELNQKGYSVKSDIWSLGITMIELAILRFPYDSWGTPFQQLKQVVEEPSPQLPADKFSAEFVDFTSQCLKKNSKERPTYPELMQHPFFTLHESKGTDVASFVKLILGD
How it is done:
(§1) Also included in the kinase profile are four isoforms of PKC (δ, ε, η, θ) and eight isoforms of CAMKs (CAMKIα, δ, γ; CAMKIIα, β, δ, γ; CAMK4).
(§2) The global kinase profiling experiment was performed by Ambit Biosciences.

In the next assay the target is T2, KIT(V559D) (Homo sapiens, UniProt P10721, V559D).
T2 construct: purchased Ambit Biosciences (KINOMEscan)
How it is done:
as §1, §2

For the next assay, the target named is T3, RIPK4 (Homo sapiens, UniProt P57078).
T3 construct: purchased Ambit Biosciences (KINOMEscan)
T3 sequence (P57078 1-832): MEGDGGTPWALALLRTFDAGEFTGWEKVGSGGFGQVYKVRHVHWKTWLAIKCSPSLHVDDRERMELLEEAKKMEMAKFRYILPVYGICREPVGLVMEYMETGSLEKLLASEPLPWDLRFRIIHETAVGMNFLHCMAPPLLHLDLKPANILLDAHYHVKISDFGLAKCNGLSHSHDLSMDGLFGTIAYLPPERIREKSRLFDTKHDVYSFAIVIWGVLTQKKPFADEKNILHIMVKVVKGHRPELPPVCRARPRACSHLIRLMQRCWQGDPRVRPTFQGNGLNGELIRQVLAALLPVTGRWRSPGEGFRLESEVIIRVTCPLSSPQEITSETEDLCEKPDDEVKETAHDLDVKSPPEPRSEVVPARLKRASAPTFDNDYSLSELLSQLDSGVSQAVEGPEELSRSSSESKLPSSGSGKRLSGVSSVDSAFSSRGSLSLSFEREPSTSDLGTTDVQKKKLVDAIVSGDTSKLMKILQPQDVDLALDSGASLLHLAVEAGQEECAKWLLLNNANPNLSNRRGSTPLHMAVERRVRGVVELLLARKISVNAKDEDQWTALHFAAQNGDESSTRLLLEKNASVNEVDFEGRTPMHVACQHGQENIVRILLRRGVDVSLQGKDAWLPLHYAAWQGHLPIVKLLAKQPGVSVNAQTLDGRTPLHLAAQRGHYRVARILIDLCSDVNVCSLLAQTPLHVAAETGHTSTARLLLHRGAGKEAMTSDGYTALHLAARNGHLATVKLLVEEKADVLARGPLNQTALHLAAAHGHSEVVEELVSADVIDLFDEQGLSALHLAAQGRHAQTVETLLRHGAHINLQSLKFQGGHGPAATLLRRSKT
How it is done: as §1, §2

Another assay addresses T4, FLT3(D835Y) (Homo sapiens, UniProt P36888, D835Y).
T4 construct: purchased Ambit Biosciences (KINOMEscan)
T4 sequence (P36888 27-993 D835Y): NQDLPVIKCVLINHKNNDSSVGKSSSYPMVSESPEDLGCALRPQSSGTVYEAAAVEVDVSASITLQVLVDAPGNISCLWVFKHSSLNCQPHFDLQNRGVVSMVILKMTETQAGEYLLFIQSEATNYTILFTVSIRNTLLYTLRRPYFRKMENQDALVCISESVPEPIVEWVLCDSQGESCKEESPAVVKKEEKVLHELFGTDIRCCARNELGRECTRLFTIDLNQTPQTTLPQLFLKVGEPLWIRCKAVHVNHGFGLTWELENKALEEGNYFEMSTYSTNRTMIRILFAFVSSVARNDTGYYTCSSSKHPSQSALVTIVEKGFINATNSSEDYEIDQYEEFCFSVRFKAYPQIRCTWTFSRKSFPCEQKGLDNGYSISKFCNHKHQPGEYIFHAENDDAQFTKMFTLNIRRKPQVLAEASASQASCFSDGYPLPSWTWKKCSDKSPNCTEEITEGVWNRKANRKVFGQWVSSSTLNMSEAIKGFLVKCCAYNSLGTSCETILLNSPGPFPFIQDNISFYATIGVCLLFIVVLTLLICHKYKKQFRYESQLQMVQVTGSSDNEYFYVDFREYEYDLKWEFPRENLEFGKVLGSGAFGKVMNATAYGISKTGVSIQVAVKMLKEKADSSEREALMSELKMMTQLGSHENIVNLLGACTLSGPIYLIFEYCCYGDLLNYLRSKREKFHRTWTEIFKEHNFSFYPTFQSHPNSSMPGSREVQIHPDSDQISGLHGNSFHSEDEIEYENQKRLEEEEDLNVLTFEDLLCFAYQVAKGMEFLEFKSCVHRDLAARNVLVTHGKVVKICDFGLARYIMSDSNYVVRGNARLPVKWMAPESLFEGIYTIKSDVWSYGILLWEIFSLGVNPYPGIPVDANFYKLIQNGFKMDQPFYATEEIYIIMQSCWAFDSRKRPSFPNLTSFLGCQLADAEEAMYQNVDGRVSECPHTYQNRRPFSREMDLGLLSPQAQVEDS
As for the experimental part: as §1, §2

The next assay concerns the target T5, ACVR1B (Homo sapiens, UniProt P36896).
T5 construct: purchased Ambit Biosciences (KINOMEscan)
T5 sequence (P36896 24-505): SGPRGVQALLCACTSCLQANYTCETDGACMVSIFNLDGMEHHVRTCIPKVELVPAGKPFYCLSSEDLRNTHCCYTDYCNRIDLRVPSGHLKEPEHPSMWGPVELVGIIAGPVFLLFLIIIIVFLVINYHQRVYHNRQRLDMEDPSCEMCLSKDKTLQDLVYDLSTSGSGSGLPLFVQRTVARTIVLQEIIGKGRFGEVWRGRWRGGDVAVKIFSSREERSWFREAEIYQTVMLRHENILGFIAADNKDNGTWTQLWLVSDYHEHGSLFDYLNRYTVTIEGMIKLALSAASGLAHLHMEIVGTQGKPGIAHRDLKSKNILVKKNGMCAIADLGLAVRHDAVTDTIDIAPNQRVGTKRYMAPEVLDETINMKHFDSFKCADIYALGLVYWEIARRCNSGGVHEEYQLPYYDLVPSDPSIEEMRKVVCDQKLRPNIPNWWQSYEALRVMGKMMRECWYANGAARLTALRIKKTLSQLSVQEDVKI
As for the experimental part:
as §1, §2

Read-outs that look alike come from different tables or passages of the source. Bounds are passed on as bounds.

T2 sequence (P10721 26-976 V559D): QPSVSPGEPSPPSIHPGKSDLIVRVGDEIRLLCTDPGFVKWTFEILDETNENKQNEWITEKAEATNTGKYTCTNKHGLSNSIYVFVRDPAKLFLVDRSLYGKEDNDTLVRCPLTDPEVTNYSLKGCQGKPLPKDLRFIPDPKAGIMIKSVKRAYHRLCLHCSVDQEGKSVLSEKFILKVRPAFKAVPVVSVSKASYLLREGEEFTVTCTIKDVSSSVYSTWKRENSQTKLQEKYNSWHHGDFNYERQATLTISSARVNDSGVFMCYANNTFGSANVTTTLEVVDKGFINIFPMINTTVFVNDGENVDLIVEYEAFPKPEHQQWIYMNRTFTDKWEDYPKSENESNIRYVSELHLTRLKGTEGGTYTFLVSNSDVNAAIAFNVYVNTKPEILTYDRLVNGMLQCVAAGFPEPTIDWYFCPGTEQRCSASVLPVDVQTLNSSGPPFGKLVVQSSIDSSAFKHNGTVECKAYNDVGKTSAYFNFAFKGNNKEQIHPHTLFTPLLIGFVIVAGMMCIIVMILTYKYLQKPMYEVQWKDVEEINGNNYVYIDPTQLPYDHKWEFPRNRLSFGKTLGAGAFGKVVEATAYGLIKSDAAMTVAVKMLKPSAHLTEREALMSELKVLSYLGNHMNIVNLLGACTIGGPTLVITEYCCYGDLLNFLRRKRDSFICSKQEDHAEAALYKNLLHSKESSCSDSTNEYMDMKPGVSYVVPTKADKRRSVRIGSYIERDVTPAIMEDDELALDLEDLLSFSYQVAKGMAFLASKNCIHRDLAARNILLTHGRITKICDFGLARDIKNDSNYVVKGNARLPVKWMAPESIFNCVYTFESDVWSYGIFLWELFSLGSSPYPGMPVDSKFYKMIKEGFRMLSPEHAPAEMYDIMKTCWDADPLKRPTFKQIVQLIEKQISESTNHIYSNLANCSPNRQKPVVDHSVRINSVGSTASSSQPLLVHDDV

As to `Fc1ccc(-c2c(-c3ccncc3)[nH]c3nccnc23)cc1` [Compound 122], the inhibition at 10 µM worked out at 66% at MEK6 (MEK6, 10 µM, read-out: % Competition); 75% at KIT(V559D) (KIT(V559D), 10 µM, read-out: % Competition); 76% on RIPK4 (RIPK4, 10 µM, read-out: % Competition); 76% on FLT3(D835Y) (FLT3(D835Y), 10 µM, read-out: % Competition); 91% on ACVR1B (ACVR1B, 10 µM, read-out: % Competition).
For `CC(O)CNc1cc(-c2[nH]c3cccnc3c2-c2ccc(F)cc2)ccn1` (stereo not drawn) [Compound 140], the inhibition at 10 µM at MEK6 (read-out: % Competition), on KIT(V559D) (read-out: % Competition), at RIPK4 (read-out: % Competition), at FLT3(D835Y) (read-out: % Competition) and on ACVR1B (read-out: % Competition) was under 50% throughout.
For `Fc1ccc(-c2c(-c3ccncc3)[nH]c3nccnc23)cc1` [RO1155697-000-005], the inhibition at 10 µM at MEK6 (MEK6, compound concentration 10 uM, read-out: Percent Competition) is 66%; at KIT(V559D) (KIT(V559D), compound concentration 10 uM, read-out: Percent Competition) it was 75%; at RIPK4 (RIPK4, compound concentration 10 uM, read-out: Percent Competition), 76%; at FLT3(D835Y) (FLT3(D835Y), compound concentration 10 uM, read-out: Percent Competition), 76%; on ACVR1B (ACVR1B, compound concentration 10 uM, read-out: Percent Competition), 91%.
